{"source": "paper PMC4222822", "about": "“Discovery and Characterization of a Potent and Selective Inhibitor of Aedes aegypti Inward Rectifier Potassium Channels” (PLoS ONE, 2014)", "key": {"Kir2.1": {"target": "T1, Kir2.1 (Homo sapiens, UniProt P63252)", "T1 construct": "expressed in transfected cells", "T1 sequence (P63252 1-427)": "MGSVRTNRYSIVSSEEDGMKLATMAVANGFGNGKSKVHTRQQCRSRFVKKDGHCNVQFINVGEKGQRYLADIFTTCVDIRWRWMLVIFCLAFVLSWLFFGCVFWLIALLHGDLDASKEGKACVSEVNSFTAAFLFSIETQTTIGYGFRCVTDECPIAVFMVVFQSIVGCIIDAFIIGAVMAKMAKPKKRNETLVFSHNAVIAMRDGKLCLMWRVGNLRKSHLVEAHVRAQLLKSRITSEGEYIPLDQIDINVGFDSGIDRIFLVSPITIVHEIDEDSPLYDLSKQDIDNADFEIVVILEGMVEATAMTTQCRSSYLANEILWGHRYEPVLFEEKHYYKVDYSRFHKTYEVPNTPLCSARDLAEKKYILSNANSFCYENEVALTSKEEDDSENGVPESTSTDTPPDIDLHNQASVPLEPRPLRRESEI", "assay": "Tl+ flux selectivity assay, Kir2.1", "type": "cell-based", "details": "n = 2 independent experiments in triplicate, read-out: Inhibition of Tl+ flux (IC50)", "experimental": "[Worded in the source for another target; used here, by the source, with some conditions changed.] Tl^+ flux assays were performed essentially as described previously, [18], [19]. Briefly, stably transfected T-Rex-HEK-293 cells expressing AeKir1 channels were cultured overnight in 384-well plates (20,000 cells/20 µL/well black-walled, clear-bottomed BD PureCoat amine-coated plates (BD, Bedford, MA) with a plating media containing DMEM, 10% dialyzed FBS and 1 µg/mL tetracycline. The next day, the cell culture medium was replaced with a dye-loading solution containing assay buffer (Hanks Balanced Salt Solution with 20 mM HEPES, pH 7.3), 0.01% (w/v) Pluronic F-127 (Life Technologies, Carlsbad, CA), and 1.2 µM of the thallium-sensitive dye Thallos-AM (TEFlabs, Austin, TX). Following 1 hr incubation at room temperature, the dye-loading solution was washed from the plates and replaced with 20 µL/well of assay buffer. […] Tl^+ flux data were analyzed as previously described, [21], [22] using a combination of Excel (Microsoft Corp, Redmond, WA) with XLfit add-in (IDBS, Guildford, Surrey, UK) and OriginPro (OriginLab, Northampton, MA) software. […] The slope of the fluorescence increase beginning 5 s after Tl^+ addition and ending 15 s after Tl^+ addition was calculated."}, "[1]": {"system": "mammalian Kir channels (Kir1.1, Kir2.1, Kir2.2, Kir2.3, Kir3.1/3.2, Kir4.1, Kir7.1(M125R), Kir6.2/SUR1)", "assay": "Tl+ flux assays against a panel of mammalian Kir channels", "type": "cell-based", "details": "vs AeKir1 IC50 = 96.8 nM", "experimental": "The plates were transferred to a Hamamatsu Functional Drug Screening System 6000 (FDSS6000; Hamamatsu, Hamamatsu (or Bridgewater, NJ), Japan) where 20 µL/well of test compounds in assay buffer (as prepared below) were added and allowed to incubate with the cells for 20 min. After the incubation period, a baseline recording was collected at 1 Hz for 10 s (excitation 470±20 nm, emission 540±30 nm) followed by a Tl^+ stimulus buffer addition (10 µL/well) and data collection for an additional 4 min. The Tl^+ stimulus buffer contains in (mM) 125 NaHCO3, 1.8 CaSO4, 1 MgSO4, 5 glucose, 12 Tl2SO4, 10 HEPES, pH 7.4. For Tl^+ flux assays on the mammalian channels Kir2.x, Kir4.1 and Kir6.2/SUR1 expressing cells, the Tl^+ stimulus buffer contained 1.8 mM Tl2SO4. Also, Tl^+ flux assays on Kir3.1/3.2/mGlu8 expressing cell, required addition of an EC80 concentration of glutamate (Sigma-Aldrich, St. Louis, MO) with the Tl^+ stimulus buffer.\nThe test compounds were transferred to daughter polypropylene 384-well plates (Greiner Bio-One, Monroe, NC) using an Echo555 liquid handler (Labcyte, Sunnyvale, CA), and then diluted into assay buffer to generate a 2X stock in 0.6% DMSO (0.3% final). For Tl^+ flux assays on Kir6.2/SUR1 expressing cells, test compounds were diluted in assay buffer containing diazoxide (250 µM final) to induce channel activation. […]"}}}
{"smiles": "CCC(=O)N1c2ccc(S(=O)(=O)Nc3cccc(OC)c3)cc2CC1C", "note": "(centres unmarked) [VU625, N-(3-methoxyphenyl)-2-methyl-1-propionylindoline-5-sulfonamide]", "values": [{"measurement": "IC50", "setting": "Kir2.1", "result": "> 30", "unit": "µM"}, {"measurement": "selectivity for the AeKir1 channel over 8 mammalian Kir channels", "setting": "[1]", "result": "greater than 80 fold"}]}
